Data published in patent publication US11344523B2, “Composition for use in treating rotavirus infection” (Devenish Nutrition Limited, priority 2016, dated 2022).

Key:
Porcine Rotavirus [1] = assay: Virucidal effect on porcine rotavirus in primary pig kidney cells; assay type: cell-based; settings: total carboxylic acid concentration of 200 mM; for Result Replicate 2: controls PBS −5, ETHANOL −4; for Result Replicate 3: controls PBS −5, ETHANOL −5
Experimental: (§1) Carboxylic acids were obtained from David Garnett of Pathway Intermediates Ltd or from Sigma-Aldrich Co. LLC; and compositions were prepared in a Class II cabinet at room temperature in Hank's Balanced Salt Solution (Thermo Fisher Scientific Inc.) or ethanol by vortexing strongly to emulsify at a stock concentration of 1M. Stock concentrations were diluted to working concentrations e.g. of […] by serial dilution using Minimum Essential Medium (MEM) cell culture medium (Thermo Fisher Scientific Inc.) containing 2 mM L-Glutamine (Gibco Life Technologies Ltd.), and 100 μg/500 ml gentamycin (Lonza Group Ltd.).
A primary pig kidney (PPK) cell line was sourced from a kidney of a sacrificed piglet from the Agri-Food and Biosciences Institute (AFBI Hillsborough, UK). The kidney tissue was trypsinised to create a PPK cell line, which was maintained in Minimum Essential Medium (MEM) cell culture medium (Thermo Fisher Scientific Inc.) containing 2 mM L-Glutamine (Gibco Life Technologies Ltd.), 10% foetal calf serum (PAN-Biotech GmbH), and 100 μg/500 ml gentamycin (Lonza Group Ltd.).
(§2) In general, cells were seeded as at a density of 0.313e4-5.000e4 cells per 1 ml of cell suspension in growth medium, dispensed in to a SPL 24-Well Cell Culture Plate (SPL Life Sciences Co., Ltd.) in replicates of 3, each containing Academy Circular Cover Slips (Academy Science) and incubated overnight at 37° C. at 5% CO2. The growth medium was removed and replaced with 1 ml of Minimum Essential Medium (MEM) cell culture medium (Thermo Fisher Scientific Inc.) containing 2 mM L-Glutamine (Gibco Life Technologies Ltd.), and 100 μg/500 ml gentamycin (Lonza Group Ltd.) for treatment.
(§3) Porcine rotavirus was PROSYSTEM® ROTA PORCINE ROTAVIRUS VACCINE (Merck Animal Health).
Prior to treatment, the cells and coverslips were washed three times with Minimum Essential Medium (MEM) cell culture medium (Thermo Fisher Scientific Inc.) containing 2 mM L-Glutamine (Gibco Life Technologies Ltd.), and 100 μg/500 ml gentamycin (Lonza Group Ltd.). 100 μl of the virus at a titre of 10^9 TCID50/100 μl by the Reed-Muench method, and 100 μl of the treatment samples, were incubated for 30 mins at 37° C. at 5% CO2 The reaction was stopped by adding 800 μl of Minimum Essential Medium (MEM) cell culture medium (Thermo Fisher Scientific Inc.) containing 2 mM L-Glutamine (Gibco Life Technologies Ltd.), and 100 μg/500 ml gentamycin (Lonza Group Ltd.). Each treatment/virus was titrated out, initially 100 μl of each treatment was added to 900 μls of Minimum Essential Medium (MEM) cell culture medium (Thermo Fisher Scientific Inc.) containing 2 mM L-Glutamine (Gibco Life Technologies Ltd.), and 100 μg/500 ml gentamycin (Lonza Group Ltd.) to prepare a 10^−1 dilution. The 10^−1 dilution was then diluted in serial dilutions down to 10^−6 in the same medium 100 μl of media was then added to each appropriate well in replicates of 3 and incubated for 36 hours at 37° C. at 5% CO2 Ethanol or PBS were used as control treatments. Untreated cells were used as negative controls.
After incubation, coverslips were harvested. Each slip was harvested by lifting out of the medium with forceps then rinsing and fixing by dipping sequentially into glass universal bottles of PBS, acetone, and lastly acetone. The slip was then placed cells side up in a glass Petri dish of acetone in a Class II cabinet at room temperature for 10 minutes. […]

[2] = test system: Porcine Respiratory and Reproductive Syndrome Virus (PRRSV); assay: Virucidal effect on PRRSV, virus/treatment titration read by immunofluorescence; assay type: cell-based; settings: 200 mM
Experimental: as §1
MARC145 cells were obtained from the Centre of Cell Cultures, Istituto Zooprofilattico Sperimentale Brescia, Italy and were maintained in Minimum Essential Medium (MEM) cell culture medium (Thermo Fisher Scientific Inc.) containing 2 mM L-Glutamine (Gibco Life Technologies Ltd.), 10% foetal calf serum (PAN-Biotech GmbH), and 100 μg/500 ml gentamycin (Lonza Group Ltd.).
(§4) In general, cells were seeded as at a density of 0.313e4-5.000e4 cells per 1 ml of cell suspension in growth medium, dispensed in to a SPL 24-Well Cell Culture Plate (SPL Life Sciences Co., Ltd.) in replicates of 3, each containing Academy Circular Cover Slips (Academy Science) and incubated overnight at 37° C. at 5% CO2. […]

[3] = test system: porcine circovirus (PCV2); assay: Virucidal effect on PCV2 in PK15A cells; assay type: cell-based, Porcine circovirus type 2; settings: at either 100 or 200 mM
Porcine Rotavirus [4] = assay: Virucidal effect on porcine rotavirus in MA104 cells; assay type: cell-based; settings: for Titre: incubation 30 mins, DMSO ✓, control titres ETOH −4, PBS −4
Experimental: as §1
(§5) MA104 cells were obtained from ECACC and were maintained in Minimum Essential Medium (MEM) cell culture medium (Thermo Fisher Scientific Inc.) containing 2 mM L-Glutamine (Gibco Life Technologies Ltd.), 10% foetal calf serum (PAN-Biotech GmbH), and 100 μg/500 ml gentamycin (Lonza Group Ltd.).
as §2, §3
Prior to treatment, the cells and coverslips were washed three times with Minimum Essential Medium (MEM) cell culture medium (Thermo Fisher Scientific Inc.) containing 2 mM L-Glutamine (Gibco Life Technologies Ltd.), and 100 μg/500 ml gentamycin (Lonza Group Ltd.). […]

[5] = test system: infectious bovine rhinotracheitis virus (IBRV); assay: Virucidal effect on IBRV, virus/treatment titration read by immunofluorescence; assay type: cell-based, Infectious bovine rhinotracheitis virus (Bovine Herpes 1); settings: 100 mM
Experimental: as §1
as §5, with “MDBK” for “MA104”, “GmbH),” for “GmbH), and”, “Ltd.), and 1% essential non essential amino acids (Sigma-Aldrich Co. LLC.).” for “Ltd.).”
as §4

Row | Structure (SMILES) | Result Replicate 2 (Porcine Rotavirus [1]) | Result Replicate 3 (Porcine Rotavirus [1]) | reduction in titre [2] | susceptibility of virus to treatment [3] | reduction in titre (Porcine Rotavirus [4]; 200 mM) | Titre (Porcine Rotavirus [4]; Expt 1, FA conc 100 mM) | Titre (Porcine Rotavirus [4]; Expt 2, FA conc 200 mM) | reduction in titre [5]
1 | CCCC(=O)O [Butyric Acid C4 (1M), Butyric Acid] | −ve | −ve | – | – | – | – | – | –
2 | CCCCCCCCCC(=O)O [Decanoic Acid/Capric C10 (1M), Decanoic Acid] | −1 | −ve | – | – | – | – | – | –
3 | CCCCCCCCCCCC(=O)O [Dodecanoic acid/Lauric C12 (1M), Dodecanoic acid] | −ve | −1 | – | – | – | – | – | –
4 | CCCCCCCC(=O)O [Octanonic Acid/Caprylic C8 (1M), octanoic acid] | −2 | −1 | – | – | – | – | – | –
5 | CCCC(=O)[O-].[Na+] [Treatment A, Sodium butyrate] | – | – | 3.5 log10 | not susceptible | 2 log 10 | −4 | −2 | 4 log10
